Test results from patent publication US10357036B2, “Compounds for controlling arthropods” (priority 2015, dated 2019).

Legend:
Ctenocephalides felis = Ctenocephalides felis oral test; type: in vivo; conditions: 100 ppm in citrated cattle blood; after 2 days
Experimental: • Solvent: Dimethyl Sulfoxide
To produce a suitable active ingredient formulation, 10 mg of active ingredient are mixed with 0.5 ml of dimethyl sulfoxide. Dilution with citrated cattle blood gives the desired concentration.
About 20 unfed adult cat fleas (Ctenocephalides fells) are placed into a chamber which is closed at the top and bottom with gauze. A metal cylinder whose bottom end is closed with parafilm is placed onto the chamber. The cylinder contains the blood/active ingredient formulation, which can be imbibed by the fleas through the parafilm membrane.

Phaedon cochleariae = Phaedon cochleariae spray test; conditions: 100 g/ha; after 7 days
Spodoptera frugiperda = Spodoptera frugiperda spray test; type: in vivo; conditions: 100 g/ha; after 7 days
Rhipicephalus sanguineus = Rhipicephalus sanguineus in vitro contact test with adult brown dog ticks; type: in vivo; conditions: application rate 5 μg/cm^2 (=500 g/ha); after 48 h; dead or moribund ticks
Experimental: For the coating of the test tubes, 9 mg of active ingredient are first dissolved in 1 ml of acetone p.a. and then diluted to the desired concentration with acetone p.a. 250 μl of the solution are distributed homogeneously on the inner walls and the base of a 25 ml glass tube by turning and rocking on an orbital shaker (rocking rotation at 30 rpm for 2 h). With 900 ppm of active ingredient solution and internal surface area 44.7 cm^2, given homogeneous distribution, an area-based dose of 5 μg/cm^2 is achieved.
After the solvent has evaporated off, the tubes are populated with 5-10 adult dog ticks (Rhipicephalus sanguineus), sealed with a perforated plastic lid and incubated in a horizontal position in the dark at room temperature and ambient humidity. After 48 h, efficacy is determined. To this end, the ticks are knocked to the base of the tube and incubated on a hotplate at 45-50° C. for not more than 5 min. Ticks which remain motionless on the base or move in such an uncoordinated manner that they are unable to deliberately avoid the heat by climbing upwards are considered to be dead or moribund.
An efficacy of 100% means that all the ticks were dead or moribund. 0% efficacy means that none of the ticks were harmed.

Boophilus microplus = Boophilus microplus injection test; type: in vivo; conditions: 20 μg/animal; assessed after 7 days
Experimental: (§1) • Solvent: dimethyl sulfoxide
1 μl of the active ingredient solution is injected into the abdomen of 5 engorged adult female cattle ticks (Boophilus microplus). The animals are transferred into dishes and kept in a climate-controlled room.

Musca domestica = Musca domestica test; type: in vivo; conditions: 100 ppm; adult houseflies; after 2 days
Experimental: as §1
To produce a suitable active ingredient formulation, 10 mg of active ingredient are mixed with 0.5 ml of dimethyl sulfoxide, and the concentrate is diluted with water to the desired concentration.
Vessels containing a sponge treated with sugar solution and the active ingredient formulation of the desired concentration are populated with 10 adult houseflies (Musca domestica).

Tetranychus urticae = Tetranychus urticae spray test, OP-resistant (bean leaf discs); type: in vivo; conditions: 100 g/ha; after 6 days
Experimental: After 6 days, the efficacy in % is determined.

| Compound | efficacy (rate of extermination) (Ctenocephalides felis) [%] | efficacy (Phaedon cochleariae) [%] | efficacy (Spodoptera frugiperda) [%] | efficacy (Rhipicephalus sanguineus) [%] | efficacy (laying of fertile eggs) (Boophilus microplus) [%] | efficacy (rate of extermination) (Musca domestica) [%] | efficacy (Tetranychus urticae) [%] |
| --- | --- | --- | --- | --- | --- | --- | --- |
| CC(=O)NCc1cccc(-c2cnn(-c3c(Cl)cc(C(F)(C(F)(F)F)C(F)(F)F)cc3OC(F)(F)F)c2)c1 [Ia-38] | 100 | 100 | 100 | 80 | 100 | 100 |  |
| CCCCC(=O)NCc1cc(-c2cnn(-c3c(Cl)cc(C(F)(C(F)(F)F)C(F)(F)F)cc3C(F)F)c2)ccc1F [Ia-59] | 100 | 100 | 100 |  | 100 | 100 | 100 |
| N-(2-chloro-5-{1-[2,6-dichloro-4-(1,1,1,2,3,3,3-heptafluoropropan-2-yl)phenyl]-1H-pyrazol-4-yl}benzyl)-N-methylpropanamide [Ia-22] | 100 | 100 |  | 80 | 100 |  | 90 |
| CCC(=O)NCc1cc(-c2cnn(-c3c(Cl)cc(C(F)(C(F)(F)F)C(F)(F)F)cc3OC(F)(F)F)c2)cnc1Cl [Ia-133] | 100 | 100 | 100 |  | 100 | 100 |  |
| CCC(=O)NCc1cc(-c2cnn(-c3c(Cl)cc(C(F)(C(F)(F)F)C(F)(F)F)cc3Cl)c2)cnc1Cl [Ia-132] | 100 | 100 | 100 |  | 100 | 100 |  |
| CC(C)CC(=O)NCc1cc(-c2cnn(-c3c(Cl)cc(C(F)(C(F)(F)F)C(F)(F)F)cc3C(F)F)c2)ccc1F [Ia-61] | 100 |  | 100 |  | 100 | 80 | 70 |
| CS(=O)(=O)NCc1cc(-c2cnn(-c3c(Cl)cc(C(F)(C(F)(F)F)C(F)(F)F)cc3Cl)c2)ccc1Cl [Ic-01] | 100 | 100 | 100 |  | 100 | 90 | 100 |
| N#Cc1cc(C(F)(C(F)(F)F)C(F)(F)F)cc(Cl)c1-n1cc(-c2cccc(CNC(=O)C3CC3)c2)cn1 [Ia-98] | 100 | 100 |  |  | 100 | 90 | 90 |
| CCC(=O)NCc1cccc(-c2cnn(-c3c(Cl)cc(C(F)(C(F)(F)F)C(F)(F)F)cc3C(F)(F)F)c2)c1F [Ia-150] | 100 | 100 | 100 |  | 100 | 100 | 90 |
| CC(=O)NCc1cccc(-c2cnn(-c3c(Cl)cc(C(F)(C(F)(F)F)C(F)(F)F)cc3C(F)F)c2)c1 [Ia-02] | 100 | 100 | 100 |  | 100 | 100 | 100 |
| CCC(=O)NCc1cccc(-c2cnn(-c3c(Cl)cc(C(F)(C(F)(F)F)C(F)(F)F)cc3C(F)F)c2)c1F [Ia-143] | 100 | 100 | 100 | 80 | 100 | 100 |  |
| O=C(NCc1cc(-c2cnn(-c3c(Cl)cc(C(F)(C(F)(F)F)C(F)(F)F)cc3OC(F)(F)F)c2)ccc1F)C1CC1 [Ia-40] | 100 | 100 | 100 | 80 | 100 | 100 |  |
| CCC(=O)NCc1cc(-c2cnn(-c3c(Cl)cc(C(F)(C(F)(F)F)C(F)(F)F)cc3C(F)(F)F)c2)ccc1Cl [Ia-29] | 100 | 100 | 100 | 100 | 100 | 100 |  |
| CC(=O)NCc1cccc(-c2cnn(-c3c(Cl)cc(C(F)(C(F)(F)F)C(F)(F)F)cc3C(F)F)c2)c1F [Ia-144] | 100 | 100 | 100 |  | 100 | 100 | 90 |
| CC(=O)NCc1cccc(-c2cnn(-c3c(Cl)cc(C(F)(C(F)(F)F)C(F)(F)F)cc3C(F)(F)F)c2)c1F [Ia-151] | 100 | 100 | 100 |  | 100 | 100 |  |
| CN(Cc1cc(-c2cnn(-c3c(Cl)cc(C(F)(C(F)(F)F)C(F)(F)F)cc3Cl)c2)ccc1Cl)S(C)(=O)=O [Ic-04] | 100 | 100 | 100 |  |  | 100 | 100 |
| CC(=O)NCc1cc(-c2cnn(-c3c(Cl)cc(C(F)(C(F)(F)F)C(F)(F)F)cc3Cl)c2)ccc1C(F)(F)F [Ia-74] | 100 | 100 | 100 |  | 100 | 100 | 100 |
| CCC(=O)NCc1c(F)ccc(-c2cnn(-c3c(Cl)cc(C(F)(C(F)(F)F)C(F)(F)F)cc3Cl)c2)c1F [Ia-148] | 100 | 100 | 100 |  | 100 | 100 |  |
| CSc1cc(C(F)(C(F)(F)F)C(F)(F)F)cc(Cl)c1-n1cc(-c2ccc(F)c(CNC(=O)C3CC3)c2)cn1 [Ia-12] | 100 | 100 | 83 |  | 100 | 100 | 100 |
| O=C(NCc1cccc(-c2cnn(-c3c(Cl)cc(C(F)(C(F)(F)F)C(F)(F)F)cc3Cl)c2)c1)C1CC1 [Ia-41] | 100 | 100 |  |  | 100 | 100 |  |
| CCC(=O)NCc1cc(-c2cnn(-c3c(Cl)cc(C(F)(C(F)(F)F)C(F)(F)F)cc3Cl)c2)ccc1C(F)(F)F [Ia-72] | 100 | 100 | 100 |  | 100 | 100 | 100 |
| CCC(=O)NCc1c(F)ccc(-c2cnn(-c3c(Cl)cc(C(F)(C(F)(F)F)C(F)(F)F)cc3C(F)(F)F)c2)c1F [Ia-146] | 100 | 100 | 100 | 100 | 100 | 100 |  |
| O=C(CC(F)(F)F)NCc1cc(-c2cnn(-c3c(Cl)cc(C(F)(C(F)(F)F)C(F)(F)F)cc3Cl)c2)ccc1Cl [Ia-35] | 100 |  | 100 |  | 100 | 100 |  |
| CCC(=O)NCc1cc(-c2cnn(-c3c(Cl)cc(C4(C(F)(F)F)CC4)cc3Cl)c2)ccc1Cl [Ia-128] | 100 | 100 | 100 |  |  | 100 |  |
| CCC(=O)NC1CCc2ccc(-c3cnn(-c4c(Cl)cc(C(F)(C(F)(F)F)C(F)(F)F)cc4C(F)(F)F)c3)cc21 (stereo not shown) [I-Tc-02] | 100 |  | 100 | 80 | 100 |  |  |
| O=C(NCc1cc(-c2cnn(-c3c(Cl)cc(C(F)(C(F)(F)F)C(F)(F)F)cc3Cl)c2)cnc1Cl)C1CC1 [Ia-18] | 100 | 100 | 100 |  | 100 | 100 |  |
